Patent US6521651B1, “Pharmaceutical composition” (Abbott Laboratories, priority 1996, dated 2003)

Test: Oral bioavailability studies in dogs
Type: in vivo
Details: both sexes, beagle, dog, plasma; unformulated solid in a capsule dosage form, 5 mg/kg oral dose in dogs
Experimental: These capsules were administered to fasted dogs with 10 ml of water.
These capsules were administered to non-fasted dogs with ten milliliter of water.
These capsules were administered to fed dogs with ten milliliter of water.
Dogs (beagle dogs, mixed sexes, weighing 7-14 kg) were fasted overnight prior to dosing, but were permitted water ad libitum. Each dog received a 100 μg/kg subcutaneous dose of histamine approximately 30 minutes prior to dosing. Each dog received a single solid dosage form corresponding to a 5 mg/kg dose of the drug. The dose was followed by approximately 10 milliliters of water. Blood samples were obtained from each animal prior to dosing and 0.25, 0.5, 1.0, 1.5, 2, 3, 4, 6, 8, 10 and 12 hours after drug administration. […] Concentrations of parent drug were determined by reverse phase HPLC with low wavelength UV detection following liquid-liquid extraction of the plasma samples. The parent drug area under the curve was calculated by the trapezoidal method over the time course of the study. The absolute bioavailability of each test composition was calculated by comparing the area under the curve after oral dosing to that obtained from a single intravenous dose. Each capsule or capsule composition was evaluated in a group containing at least six dogs; the values reported are averages for each group of dogs.

Compound: CC(C)c1nc(CN(C)C(=O)N[C@H](C(=O)N[C@@H](Cc2ccccc2)C[C@H](O)[C@H](Cc2ccccc2)NC(=O)OCc2cncs2)C(C)C)cs1 [compound III, (2S,3S,5S)-5-(N-(N-((N-Methyl-N-((2-isopropyl-4-thiazolyl)methyl)-amino)carbonyl)valinyl)amino)-2-(N-((5-thiazolyl)methoxycarbonyl)amino)-1,6-diphenyl-3-hydroxyhexane]
- bioavailability: < 2%
